Assay results from EP2471783A1, “Novel polymorphic form of efavirenz” (Esteve Química, S.A., priority 2010, dated 2012).

Columns and labels:
[1] = cited from earlier work
[2] = Accelerated stability conditions; format: physicochemical
Excerpt: Thus, in one aspect, the present invention is directed to a polymorphic form C of Efavirenz characterized by an X-ray powder diffraction pattern which comprises characteristic 2θ values at: 7.1, 7.3, 11.0, 13.8, 14.2, 14.6, 19.1, 20.9, 21.2, 24.5 and 24.9 ± 0.2 degrees 2θ.

[3] = Dissolution studies in ethanol-water (volume of ethanol required for dissolution of an aqueous suspension); format: physicochemical; settings: suspension in water 20 mL with DSS 0.02 g, 20°C, ethanol added at 0.2 mL/min, 50% reduction in turbidity
Experimental: Dissolution experiments were performed for forms I, III and C of Efavirenz. To an aqueous suspension of each form, ethanol was added and the volume recorded in order for dissolution. Efavirenz is hydrophobic and has a tendency to float in water. To improve the dispersion of efavirenz in water, a surfactant was used, namely, docusate sodium (DSS), the dioctyl ester of sodium sulfosuccinate. DSS is a widely used pharmaceutical excipient and food additive. Efavirenz, polymorphic form and quantity as indicated in the table V, was suspended in water (milliQ, 20 mL) with DSS (docusate sodium, 0.02 g) in a 100 mL vessel. This mixture was placed in an ultrasonic batch for 5 minutes to break up any agglomerates and then the vessel was transferred to an automated (HEL) reaction block equipped with pitched 4-blade turbine PTFE agitators (set to 120 rpm), turbidity probes and syringe pumps. The temperature inside the vessels was controlled by jackets connected to a re-circulating heater-chiller unit. The mixtures were agitated at 20°C and turbidity probes adjusted before addition of ethanol at a continuous rate of 0.2 mL/min via the syringe pumps. The volume of ethanol required for dissolution was taken as that required for a 50% reduction in the turbidity reading. […]

[4] = Dissolution studies in heptane (solubility curve, dissolution point by turbidity); format: physicochemical; settings: for Dissolution Temperatures: in heptane, heating ramp 0.2°C/min, 10% reduction in turbidity; for solubility in heptane, compared between forms: temperature range studied 17-82°C
Experimental: To determine the solubility curve of a given polymorphic form, different concentrations in heptane were prepared and charged to a HEL multi-reactor, using 100 mL vessels. These reactors were equipped with 4-blade PTFE turbines, (set to 150 rpm), temperature probes and turbidity probes. Temperature was controlled by applying the same re-circulating heater-chiller unit to all vessel jackets and using individual temperature compensation by external heating plates below each vessel. Heating ramps of 0.2°C/min were applied to each vessel, and the dissolution point determined by a 10% reduction in turbidity. […] Table VI. Results for solubility in heptane

[5] = Comparative and competitive slurry experiments (mixtures of forms, followed by powder X-ray diffraction); format: physicochemical
Experimental: Mixtures of Efavirenz form I with form III or form C were prepared according to table II. The suspensions were stirred at 20°C with small PTFE coated cross-shaped magnetic stirrers and samples taken after 1, 2 and 7 days, filtered, dried at ambient temperature under vacuum for 20 minutes and analyzed by powder X-ray diffraction.

[6] = slurry in ethanol/water, 20°C, samples after 1, 2 and 7 days

SMILES	aqueous solubility [1]	stability ([2]; 25°C and 60% relative humidity)	stability ([2]; 40°C and 75% relative humidity)	volume of ethanol required to achieve dissolution, compared between forms [3]	Dissolution Temperatures ([4]; concentration 0,010 g/mL) [°C]	Dissolution Temperatures ([4]; concentration 0,040 g/mL) [°C]	Dissolution Temperatures ([4]; concentration 0,067 g/mL) [°C]	Dissolution Temperatures ([4]; concentration 0,200 g/mL) [°C]	solubility in heptane, compared between forms [4]	conversion of form C into form I ([5]; form C in its pure form, without any contamination with form I)	content of form C in a mixture of form I and form C [5, 6]	content of form C in a mixture of form I and form C ([5]; slurry in methanol/water, 20°C, samples after 1, 2 and 7 days)	content of form I in a mixture of form I and form III [5, 6]	Dissolution Temperatures ([4]; concentration 0,180 g/mL) [°C]
O=C1Nc2ccc(Cl)cc2[C@@](C#CC2CC2)(C(F)(F)F)O1 [Efavirenz, (4S)-6-chloro-4-(cyclopropylethynyl)-4-(trifluoromethyl)-1,4-dihydro-2H-3,1-benzoxazin-2-one]	extremely poor	–	–	–	–	–	–	–	–	–	–	–	–	–
O=C1Nc2ccc(Cl)cc2[C@@](C#CC2CC2)(C(F)(F)F)O1 [Form C, (4S)-6-chloro-4-(cyclopropylethynyl)-4-(trifluoromethyl)-1,4-dihydro-2H-3,1-benzoxazin-2-one]	–	stable during at least three months	stable during at least three months	consistently requires less volume of ethanol than forms I and III	17	49	56	71	more soluble in heptane than forms I and III	not observed	decreases with time, although some still remains in the mixture after 7 days	a similar trend is observed although the transformation is slower	–	–
O=C1Nc2ccc(Cl)cc2[C@@](C#CC2CC2)(C(F)(F)F)O1 [Form I, (4S)-6-chloro-4-(cyclopropylethynyl)-4-(trifluoromethyl)-1,4-dihydro-2H-3,1-benzoxazin-2-one]	–	–	–	–	29	64	74	82	less soluble at high temperature	–	–	–	decreases with time, and after 7 days the mixture has converted completely to form III	–
O=C1Nc2ccc(Cl)cc2[C@@](C#CC2CC2)(C(F)(F)F)O1 [Form III, (4S)-6-chloro-4-(cyclopropylethynyl)-4-(trifluoromethyl)-1,4-dihydro-2H-3,1-benzoxazin-2-one]	–	–	–	–	31	55	62	–	less soluble at low temperature	–	–	–	–	75
